# Measured values from paper PMC3570346, “PET imaging of brain inflammation during early epileptogenesis in a rat model of temporal lobe epilepsy” (EJNMMI Research, 2012).
# Assays:
# [1] = target: T1, TSPO (Rattus norvegicus, UniProt P16257); experiment: In vitro [^125I]-CLINDE autoradiography on coronal brain sections (post-mortem); type: binding
# T1 construct: from tissue; host or cells: coronal cryostat sections (20 μm) of frozen rat brain, control and KASE animals
# Method: TSPO binding density was assessed using the selective TSPO ligands, ^125I]-CLINDE and ^18 F]-PBR111 as described previously. Briefly, adjacent sets of unfixed […] sections were incubated in triplicate with 3 nM ^125I]-CLINDE or 4 nM ^18F]-PBR111 in 50 mM Tris buffer (pH 7.4 at 4°C) for 1 h. Non-specific binding was assessed with co-incubation with 10 μM PK11195 (Sigma-Aldrich). Sections were washed in ice cold Tris buffer (2 × 2 min), then distilled water (1 min), before being air dried on a slide warmer at 37°C. They were exposed to film, with ^14C] polymer standards (ARC, USA) for calibration of optical density to becquerel per milligram activity. Films were scanned using a BioRad GS-800 calibrated densitometer (Bio-Rad Laboratories, Hercules, CA, USA), and exposure times were chosen such that the optical density range of the sections was within the pseudolinear response range of the film.
# Autoradiographic images were calibrated (cubic fit between optical density and [^14C]-standard values) and quantified using ImageJ ( http://rsbweb.nih.gov/ij/). […] Regions of interest were drawn blinded for control and KASE groups, converted to kilobecquerel per milligram and specific binding calculated.
# Coronal brain sections (20 μm, −3.24 mm from bregma according to [21]) were cut using a cryostat, thaw-mounted onto Polysine® microscope slides (LabServ, Australia), and stored at −80°C. During cutting, pictures were taken in EB-injected animals to evaluate extravasation macroscopically. Adjacent sets of unfixed rat brain sections were analysed in triplicate for quantitative autoradiography for TSPO with ^125I]-CLINDE, OX-42 (microglial activation) immunohistochemistry and cresyl violet (cell loss).
# Methodology regarding immunohistochemistry was performed as above. Semi-quantitative analysis included visual scoring of OX-42 signal as follows: mild (+), moderate (++) and intense (+++) OX-42 signals. For autoradiography, a preincubation step of 15 min in Tris buffer (50 mM, pH 7.4) was added to remove exogenous TSPO ligand. TSPO binding was assessed as described above in the cortex, corpus callosum, hippocampus and hippocampal subregions (CA1, CA2 and CA3/hilus), thalamus, hypothalamus, amygdala and piriform cortex. Histological verification of cell loss in hippocampal pyramidal cell layers (CA1, CA2, CA3 and hilus) was performed on Nissl-stained sections (using Cresyl Echt Violet) blinded for the treatment group.
# [2] = target: T2, Translocator protein (TSPO) (Rattus norvegicus, UniProt P16257); experiment: In vivo [^18F]-PBR111 PET imaging, Vt by two-compartment model with metabolite-corrected plasma input; parameters: Tissue distribution volume (Vt): unit not given here
# T2 construct: from tissue; host or cells: brain of living male Wistar rats (control and kainic acid-induced status epilepticus)
# Excerpt: Seven days post-SE, rats were anaesthetised for PET imaging using isoflurane (induction 5%, maintenance 1% to 3%, in medical oxygen), and body temperature was maintained using a feedback-regulated heating pad. A catheter was implanted in the femoral artery as described above. The animal was then placed into the field-of-view of the INVEON PET/CT scanner (Siemens Medical Solutions, Knoxville, TN, USA), and physiological parameters (heart rate, respiration and body temperature) were monitored (BioVet, m2m Imaging Corp., Cleveland, OH, USA) for the entire scanning period. To avoid movement and fix tubing, the animal was restrained in the supine position using a webbed sock and adhesive tape.
# The PET scan was started 20 to 30 s before the 1-min infusion of radiotracer (ID = 12.5 to 29.0 MBq, 0.05 to 0.29 nmol, max 0.4 ml in volume, as described above) for the duration of 60 min. Femoral arterial blood samples (approximately 50 μl/sample) were taken at 15-s intervals for 4 min after the commencement of the PET scan, and then at 10-, 20-, 30- and 50-min post-injections. In the last sample (100 μl), metabolites were analysed to confirm the standard metabolite correction and to calculate the partition coefficient at 50 min. Heparinised saline (20 IU) was administered after blood sampling to maintain the blood volume and to prevent hypotension. Plasma samples were collected after 10-min centrifugation of whole blood at 3,000 rpm. Whole blood and plasma samples were counted in a Wallac γ-counter, decay-corrected and weight-normalised. At the end of the PET scanning, a 10-min 70 kV/500 μA computed tomography (CT) scan was performed on each animal (for co-registration with PET data and magnetic resonance imaging (MRI) atlas).
# Coincidence events were acquired into list mode files and then histogrammed into […] consecutive frames of variable duration (8 × 15 s, 6 × 20 s, 6 × 60 s, 3 × 180 s, and 5 × 500 s). The volumes were then reconstructed with an iterative algorithm 3D-OSEM/FastMap. PET images (128 × 128 × 159) were co-registered with CT scans and mapped to a MRI-based rat brain atlas. Left and right time activity curves (TACs) were derived from eight VOIs such as the frontal cortex, striatum, parietal cortex, hippocampus, thalamus, amygdala, occipital cortex and colliculi using the Anatomist package ( http://brainvisa.info). Also, the hypothalamus, brainstem, pons and cerebellum were extracted from the reconstructed images. Data were then converted into activity concentration (kBq/ml) using cross calibration factors.
# Firstly, a two-compartment model was used to assess the ‘apparent’ volume of distribution (Vt), or the ‘volume’ of the tracer would occupy if the tracers were to adopt the same concentration in the tissue as in the blood. For each VOI, Vt was calculated using their TACs, the metabolite-corrected plasma curve as input function and the whole blood curve to model the kinetics of the vascular fraction (5%) in the cerebral tissue.
# [3] = Stability of [^18F]-PBR111 in whole rat blood (1 h on the bench); type: in vitro ADME; conditions: samples from 2- and 5-min post-injection left on the bench for 1 h vs processed immediately
# Method: Animals were injected intravenously with [^18F]-PBR111 (injected dose (ID) = 14.1 to 38.7 MBq). The tracer was infused via the dorsal penile vein (maximum volume of 0.3 ml) using a Harvard Apparatus Pump 11 plus syringe pump (Holliston, MA, USA) over a constant time interval of 1 min. The line was flushed with saline, and the remaining radioactivity was measured in the line and syringe. Different ranges of tracer mass (0.07 to 4.00 nmol) were injected to evaluate whether this would affect the tracer metabolism. Arterial blood samples (0.2 ml) were withdrawn via a cannula implanted in the femoral artery from 2 to 60 min after the start of injection. The whole blood was then centrifuged at 3,000 rpm for 10 min, and the plasma was collected. Plasma samples (0.1 ml) were weighed and the radioactivity was measured in a Wallac γ-counter. At 2- and 5-min post-injections, the samples were taken in duplicate. One sample was left on the bench for 1 h, and the other was processed immediately to evaluate the stability in whole rat blood.
# [4] = [^18F]-PBR111 metabolite analysis in plasma (solid phase extraction); type: in vivo, rat; conditions: 50-min post-injection
# Excerpt: To establish a standard curve of [^18F]-PBR111 metabolism, blood samples were obtained in four control rats (304 ± 10 g) and six KASE rats (312 ± 8 g, minor to medium SE), which were maintained under anaesthesia to mimic the conditions of the PET scan (Table 1). Animals were anaesthetised with 5% isoflurane for induction and 1% to 3% for maintenance, administered in medical oxygen. An incision was made in the inner thigh of the hind leg, and the femoral artery was exposed and loosely tied off after blunt dissection of the surrounding tissue. A polyethylene cannula filled with heparinised saline (20 IU/ml) was placed into the femoral artery and threaded 3 cm proximally.
# Animals were injected intravenously with [^18F]-PBR111 (injected dose (ID) = 14.1 to 38.7 MBq). […] The line was flushed with saline, and the remaining radioactivity was measured in the line and syringe. […] Plasma samples (0.1 ml) were weighed and the radioactivity was measured in a Wallac γ-counter. […]
# SPE analysis was performed on Oasis cartridges (Waters Oasis® HLB, 30 μm, 60 mg) that were preconditioned with 1 ml ethanol followed by 5 ml water. […] The radioactivity in each fraction and that remaining on the cartridge was measured with a Wallac γ-counter. Data were expressed as the percentage of unmetabolised parent compound (^18F]-PBR111) in the plasma sample. […]
# T2 sequence (P16257 whole entry): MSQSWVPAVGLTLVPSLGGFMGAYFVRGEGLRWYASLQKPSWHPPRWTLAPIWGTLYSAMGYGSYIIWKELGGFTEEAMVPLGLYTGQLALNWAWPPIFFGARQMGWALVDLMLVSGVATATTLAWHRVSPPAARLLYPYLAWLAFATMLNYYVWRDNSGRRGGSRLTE
# T1 sequence (P16257 whole entry): as above
compound,measurement,setting,value
CCN(CC)C(=O)Cc1c(-c2ccc(I)cc2)nc2ccc(Cl)cn12 [[^125I]-CLINDE],"% increase of specific binding, KASE vs control",[1]; Hippocampus (CA1),613%
same,"% increase of specific binding, KASE vs control",[1]; Hippocampus (CA2),491%
same,"% increase of specific binding, KASE vs control",[1]; Hippocampus (CA3)/hilus,860%
same,"% increase of specific binding, KASE vs control","[1]; Hippocampus (whole, dorsal)",226%
CCN(CC)C(=O)Cc1c(-c2ccc(OCCC[18F])cc2)nc2ccc(Cl)cn12 [[^18F]-PBR111],"Increase (%) of Vt, KASE vs control","[2]; Amygdala, Left",288%
same,Tissue distribution volume (Vt),"[2]; Amygdala, Left, Control (N = 4)",5.3 ± 0.8
same,Tissue distribution volume (Vt),"[2]; Amygdala, Left, KASE (N = 4), 7 days post-SE",20.6 ± 2.8
same,"Increase (%) of Vt, KASE vs control","[2]; Amygdala, Right",284%
same,Tissue distribution volume (Vt),"[2]; Amygdala, Right, Control (N = 4)",6.1 ± 0.7
same,Tissue distribution volume (Vt),"[2]; Amygdala, Right, KASE (N = 4), 7 days post-SE",23.4 ± 4.8
same,"Increase (%) of Vt, KASE vs control",[2]; Brainstem,41%
same,Tissue distribution volume (Vt),"[2]; Brainstem, Control (N = 4)",4.7 ± 0.8
same,Tissue distribution volume (Vt),"[2]; Brainstem, KASE (N = 4), 7 days post-SE",6.7 ± 1.0
same,"Increase (%) of Vt, KASE vs control",[2]; Cerebellum,43%
same,Tissue distribution volume (Vt),"[2]; Cerebellum, Control (N = 4)",7.5 ± 0.8
same,Tissue distribution volume (Vt),"[2]; Cerebellum, KASE (N = 4), 7 days post-SE",10.6 ± 1.3
same,"Increase (%) of Vt, KASE vs control","[2]; Colliculi, Left",44%
same,Tissue distribution volume (Vt),"[2]; Colliculi, Left, Control (N = 4)",4.0 ± 1.0
same,Tissue distribution volume (Vt),"[2]; Colliculi, Left, KASE (N = 4), 7 days post-SE",5.8 ± 1.1
same,"Increase (%) of Vt, KASE vs control","[2]; Colliculi, Right",70%
same,Tissue distribution volume (Vt),"[2]; Colliculi, Right, Control (N = 4)",4.1 ± 1.1
same,Tissue distribution volume (Vt),"[2]; Colliculi, Right, KASE (N = 4), 7 days post-SE",6.9 ± 1.8
same,"Increase (%) of Vt, KASE vs control","[2]; Frontal cortex, Left",108%
same,Tissue distribution volume (Vt),"[2]; Frontal cortex, Left, Control (N = 4)",5.4 ± 1.0
same,Tissue distribution volume (Vt),"[2]; Frontal cortex, Left, KASE (N = 4), 7 days post-SE",11.3 ± 2.4
same,"Increase (%) of Vt, KASE vs control","[2]; Frontal cortex, Right",98%
same,Tissue distribution volume (Vt),"[2]; Frontal cortex, Right, Control (N = 4)",5.7 ± 1.2
same,Tissue distribution volume (Vt),"[2]; Frontal cortex, Right, KASE (N = 4), 7 days post-SE",11.2 ± 2.4
same,"Increase (%) of Vt, KASE vs control","[2]; Hippocampus, Left",154%
same,Tissue distribution volume (Vt),"[2]; Hippocampus, Left, Control (N = 4)",3.6 ± 0.5
same,Tissue distribution volume (Vt),"[2]; Hippocampus, Left, KASE (N = 4), 7 days post-SE",9.1 ± 1.1
same,"Increase (%) of Vt, KASE vs control","[2]; Hippocampus, Right",159%
same,Tissue distribution volume (Vt),"[2]; Hippocampus, Right, Control (N = 4)",3.6 ± 0.4
same,Tissue distribution volume (Vt),"[2]; Hippocampus, Right, KASE (N = 4), 7 days post-SE",9.4 ± 1.6
same,"Increase (%) of Vt, KASE vs control",[2]; Hypothalamus,104%
same,Tissue distribution volume (Vt),"[2]; Hypothalamus, Control (N = 4)",4.0 ± 0.7
same,Tissue distribution volume (Vt),"[2]; Hypothalamus, KASE (N = 4), 7 days post-SE",8.2 ± 1.4
same,"Increase (%) of Vt, KASE vs control","[2]; Occipital cortex, Left",53%
same,Tissue distribution volume (Vt),"[2]; Occipital cortex, Left, Control (N = 4)",9.8 ± 3.4
same,Tissue distribution volume (Vt),"[2]; Occipital cortex, Left, KASE (N = 4), 7 days post-SE",15.1 ± 3.5
same,"Increase (%) of Vt, KASE vs control","[2]; Occipital cortex, Right",62%
same,Tissue distribution volume (Vt),"[2]; Occipital cortex, Right, Control (N = 4)",9.3 ± 1.4
same,Tissue distribution volume (Vt),"[2]; Occipital cortex, Right, KASE (N = 4), 7 days post-SE",15.0 ± 1.4
same,"Increase (%) of Vt, KASE vs control","[2]; Parietal cortex, Left",110%
same,Tissue distribution volume (Vt),"[2]; Parietal cortex, Left, Control (N = 4)",4.5 ± 0.6
same,Tissue distribution volume (Vt),"[2]; Parietal cortex, Left, KASE (N = 4), 7 days post-SE",9.5 ± 1.1
same,"Increase (%) of Vt, KASE vs control","[2]; Parietal cortex, Right",136%
same,Tissue distribution volume (Vt),"[2]; Parietal cortex, Right, Control (N = 4)",4.9 ± 0.8
same,Tissue distribution volume (Vt),"[2]; Parietal cortex, Right, KASE (N = 4), 7 days post-SE",11.6 ± 2.0
same,"Increase (%) of Vt, KASE vs control",[2]; Pons,78%
same,Tissue distribution volume (Vt),"[2]; Pons, Control (N = 4)",4.2 ± 0.9
same,Tissue distribution volume (Vt),"[2]; Pons, KASE (N = 4), 7 days post-SE",7.5 ± 1.8
same,"Increase (%) of Vt, KASE vs control","[2]; Striatum, Left",180%
same,Tissue distribution volume (Vt),"[2]; Striatum, Left, Control (N = 4)",2.8 ± 0.6
same,Tissue distribution volume (Vt),"[2]; Striatum, Left, KASE (N = 4), 7 days post-SE",8.0 ± 1.2
same,"Increase (%) of Vt, KASE vs control","[2]; Striatum, Right",156%
same,Tissue distribution volume (Vt),"[2]; Striatum, Right, Control (N = 4)",3.0 ± 0.5
same,Tissue distribution volume (Vt),"[2]; Striatum, Right, KASE (N = 4), 7 days post-SE",7.8 ± 1.1
same,"Increase (%) of Vt, KASE vs control","[2]; Thalamus, Left",173%
same,Tissue distribution volume (Vt),"[2]; Thalamus, Left, Control (N = 4)",2.6 ± 0.5
same,Tissue distribution volume (Vt),"[2]; Thalamus, Left, KASE (N = 4), 7 days post-SE",7.0 ± 1.8
same,"Increase (%) of Vt, KASE vs control","[2]; Thalamus, Right",155%
same,Tissue distribution volume (Vt),"[2]; Thalamus, Right, Control (N = 4)",2.8 ± 0.5
same,Tissue distribution volume (Vt),"[2]; Thalamus, Right, KASE (N = 4), 7 days post-SE",7.1 ± 1.4
same,Stability in whole rat blood,[3],not further metabolised in vitro in whole rat blood
same,Percentage of parent compound in plasma,[4]; control animals,20.8 ± 1.3%
same,Percentage of parent compound in plasma,[4]; severe SE animals,20.1 ± 1.3%
